According to BigSolDB 2.1:

COc1ccc2nc(S(=O)Cc3ncc(C)c(OC)c3C)[nH]c2c1 (stereo unspecified)
solubility (mole fraction)
Conditions | in THF | in acetone | in acetonitrile | in ethanol | in ethyl acetate | in methanol | in n-butanol | in water
278.15 K | 0.00458 | 0.00146 | 0.00118 | 0.00157 | 0.000981 | 0.00206 | 0.00128 | 4.07e-05
283.15 K | 0.00644 | 0.00173 | 0.00143 | 0.00187 | 0.00112 | 0.00264 | 0.00153 | 5e-05
288.15 K | 0.00843 | 0.00215 | 0.00182 | 0.00224 | 0.00134 | 0.00348 | 0.00196 | 6.15e-05
293.15 K | 0.0113 | 0.00265 | 0.00222 | 0.00261 | 0.00156 | 0.00435 | 0.0024 | 7.64e-05
298.15 K | 0.0146 | 0.00313 | 0.00273 | 0.00347 | 0.00185 | 0.00569 | 0.00303 | 9.36e-05
303.15 K | 0.0196 | 0.00377 | 0.00354 | 0.00413 | 0.0022 | 0.00686 | 0.0037 | 0.000115
308.15 K | 0.0259 | 0.00464 | 0.00429 | 0.00509 | 0.00253 | 0.00857 | 0.00455 | 0.000138
313.15 K | 0.0327 | 0.00541 | 0.00513 | 0.00605 | 0.00293 | 0.0106 | 0.0054 | 0.000165
318.15 K | 0.0425 | 0.00637 | 0.00607 | 0.00702 | 0.00343 | 0.0129 | 0.0065 | 0.000196
323.15 K | 0.0545 | 0.00739 | 0.00711 | 0.00832 | 0.00405 | 0.0156 | 0.00779 | 0.00023
328.15 K | 0.0663 | 0.0085 | 0.00843 | 0.00982 | 0.0047 | 0.0186 | 0.00884 | 0.000263
333.15 K | 0.0789 | 0.00982 | 0.00978 | 0.0113 | 0.00523 | 0.0216 | 0.0103 | 0.000299
